Data published in ChEMBL document CHEMBL1128713, “N-alkylated nitrogen-in-the-ring sugars: conformational basis of inhibition of glycosidases and HIV-1 replication” (J Med Chem, 1995).
In brackets after ≈: the same amount, converted by molar mass.

biological target: T1, Alpha-mannosidase 2 (Rattus norvegicus, UniProt P28494); test: Competitive Inhibitory activity against Golgi Alpha-mannosidase II
T1 sequence (P28494 whole entry): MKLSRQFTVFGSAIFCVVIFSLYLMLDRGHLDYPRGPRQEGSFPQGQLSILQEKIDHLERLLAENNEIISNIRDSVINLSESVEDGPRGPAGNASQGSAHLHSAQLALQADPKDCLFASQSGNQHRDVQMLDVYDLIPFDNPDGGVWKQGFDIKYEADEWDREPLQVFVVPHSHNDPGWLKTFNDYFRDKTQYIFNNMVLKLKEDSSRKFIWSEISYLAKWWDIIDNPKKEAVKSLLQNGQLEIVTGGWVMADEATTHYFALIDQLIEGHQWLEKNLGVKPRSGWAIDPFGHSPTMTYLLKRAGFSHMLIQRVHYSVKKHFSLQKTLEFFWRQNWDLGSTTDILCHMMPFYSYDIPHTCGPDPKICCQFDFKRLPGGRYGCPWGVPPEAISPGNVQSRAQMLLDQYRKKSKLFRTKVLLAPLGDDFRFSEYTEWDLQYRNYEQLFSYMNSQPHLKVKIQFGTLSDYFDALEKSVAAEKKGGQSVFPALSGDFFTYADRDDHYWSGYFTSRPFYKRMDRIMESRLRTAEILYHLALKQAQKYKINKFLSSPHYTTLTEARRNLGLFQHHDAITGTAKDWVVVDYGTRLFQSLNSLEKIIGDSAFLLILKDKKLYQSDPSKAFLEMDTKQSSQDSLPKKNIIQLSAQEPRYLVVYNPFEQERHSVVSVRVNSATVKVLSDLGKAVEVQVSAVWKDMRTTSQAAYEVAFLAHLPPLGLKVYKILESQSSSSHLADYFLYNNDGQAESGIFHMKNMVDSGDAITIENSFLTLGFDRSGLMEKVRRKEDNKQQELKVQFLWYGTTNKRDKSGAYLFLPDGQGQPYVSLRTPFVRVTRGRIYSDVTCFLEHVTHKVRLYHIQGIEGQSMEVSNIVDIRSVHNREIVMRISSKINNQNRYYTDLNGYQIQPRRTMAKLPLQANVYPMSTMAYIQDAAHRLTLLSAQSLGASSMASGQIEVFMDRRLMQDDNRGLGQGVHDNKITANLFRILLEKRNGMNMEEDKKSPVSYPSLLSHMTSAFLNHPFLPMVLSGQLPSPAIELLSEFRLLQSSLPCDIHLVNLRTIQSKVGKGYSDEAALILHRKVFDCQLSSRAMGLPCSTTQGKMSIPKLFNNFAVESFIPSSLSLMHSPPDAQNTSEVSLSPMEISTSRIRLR

SMILES	Ki [µM]
OC[C@H]1NC[C@@H](O)[C@@H]1O	35
CN1C[C@H](O)[C@@H](O)[C@H](O)[C@H]1CO	< 50

biological target: not listed separately; test: Competitive Inhibitory activity against Endoplasmic reticulum Alpha-Glucosidase II; parameters: species or system Rattus norvegicus

SMILES	Ki [µM]
OC[C@H]1NC[C@@H](O)[C@@H]1O	9.7
CN1C[C@H](O)[C@@H](O)[C@H](O)[C@H]1CO	5.8

system: MOLT-4; test: Concentration giving 50% inhibition of HIV-1 induced cytopathogenicity in MOLT-4 cells; type: functional, cell-based, Homo sapiens

SMILES	EC50 [µg/mL]
CCCCN1[C@H](CO)[C@@H](O)[C@H](O)[C@H]1CO	> 100
OC[C@H]1N[C@H](CO)[C@@H](O)[C@@H]1O	> 100
CN1[C@H](CO)[C@@H](O)[C@H](O)[C@H]1CO	> 100
OC[C@H]1NC[C@@H](O)[C@@H]1O	> 100
CN1C[C@H](O)[C@@H](O)[C@H](O)[C@H]1CO	100 (≈ 564 µM)

biological target: T2, Sucrase-isomaltase, intestinal (Rattus norvegicus, UniProt P23739); test: Inhibition of Glycosidases (isomaltase)in rat intestinal brush border membranes by D-glucose oxidase-peroxidase method; type: cell membranes, Membrane
T2 sequence (P23739 1-1013 limits assumed): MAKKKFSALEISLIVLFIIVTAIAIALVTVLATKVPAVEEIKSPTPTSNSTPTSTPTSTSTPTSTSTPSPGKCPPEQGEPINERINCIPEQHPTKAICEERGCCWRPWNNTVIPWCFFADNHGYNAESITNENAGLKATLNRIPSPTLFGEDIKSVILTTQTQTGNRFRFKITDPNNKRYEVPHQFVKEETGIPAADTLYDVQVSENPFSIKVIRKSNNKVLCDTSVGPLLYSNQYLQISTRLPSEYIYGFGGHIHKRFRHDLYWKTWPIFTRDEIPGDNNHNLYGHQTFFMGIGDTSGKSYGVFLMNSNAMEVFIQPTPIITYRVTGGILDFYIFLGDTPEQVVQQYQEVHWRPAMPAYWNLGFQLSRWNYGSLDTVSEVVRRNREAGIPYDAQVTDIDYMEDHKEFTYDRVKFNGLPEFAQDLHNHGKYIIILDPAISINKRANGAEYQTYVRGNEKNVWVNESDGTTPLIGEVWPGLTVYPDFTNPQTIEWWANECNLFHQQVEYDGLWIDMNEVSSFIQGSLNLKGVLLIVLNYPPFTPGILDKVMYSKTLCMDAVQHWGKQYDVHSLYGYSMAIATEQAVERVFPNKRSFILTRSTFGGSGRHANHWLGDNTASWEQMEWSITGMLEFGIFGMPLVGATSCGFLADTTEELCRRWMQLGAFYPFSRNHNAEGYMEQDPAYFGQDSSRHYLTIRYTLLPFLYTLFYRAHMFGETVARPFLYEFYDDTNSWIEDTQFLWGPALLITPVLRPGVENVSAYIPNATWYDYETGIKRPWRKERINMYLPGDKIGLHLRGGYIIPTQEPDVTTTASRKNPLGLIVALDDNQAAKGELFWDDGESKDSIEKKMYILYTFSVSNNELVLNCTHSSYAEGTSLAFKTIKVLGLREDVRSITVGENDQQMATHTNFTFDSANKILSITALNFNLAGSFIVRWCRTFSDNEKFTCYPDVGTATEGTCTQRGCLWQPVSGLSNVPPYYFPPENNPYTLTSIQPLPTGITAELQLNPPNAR
T2 sequence (P23739 1014-1841 limits assumed): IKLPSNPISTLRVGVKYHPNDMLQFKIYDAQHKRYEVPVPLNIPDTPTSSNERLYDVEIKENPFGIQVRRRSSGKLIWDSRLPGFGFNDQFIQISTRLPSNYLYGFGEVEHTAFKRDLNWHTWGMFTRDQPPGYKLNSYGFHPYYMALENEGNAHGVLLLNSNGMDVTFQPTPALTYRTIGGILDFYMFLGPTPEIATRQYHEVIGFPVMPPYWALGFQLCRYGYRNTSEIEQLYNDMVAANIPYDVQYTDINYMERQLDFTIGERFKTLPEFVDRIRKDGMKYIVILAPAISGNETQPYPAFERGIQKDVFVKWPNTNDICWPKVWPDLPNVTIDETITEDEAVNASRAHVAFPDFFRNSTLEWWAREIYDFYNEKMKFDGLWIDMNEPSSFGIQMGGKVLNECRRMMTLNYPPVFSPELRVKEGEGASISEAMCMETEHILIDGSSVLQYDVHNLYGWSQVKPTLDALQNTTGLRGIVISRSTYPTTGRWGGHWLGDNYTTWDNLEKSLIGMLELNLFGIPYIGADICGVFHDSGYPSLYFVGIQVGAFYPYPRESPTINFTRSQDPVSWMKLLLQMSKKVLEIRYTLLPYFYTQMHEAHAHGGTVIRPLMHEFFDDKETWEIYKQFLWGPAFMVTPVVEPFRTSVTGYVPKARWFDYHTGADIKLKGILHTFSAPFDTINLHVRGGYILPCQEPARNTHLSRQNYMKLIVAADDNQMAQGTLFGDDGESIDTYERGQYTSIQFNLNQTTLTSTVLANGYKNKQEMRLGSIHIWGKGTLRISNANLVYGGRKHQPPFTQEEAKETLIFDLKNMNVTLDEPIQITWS

SMILES	IC50 [µM]
CCCCN1[C@H](CO)[C@@H](O)[C@H](O)[C@H]1CO	< 50
OC[C@H]1N[C@H](CO)[C@@H](O)[C@@H]1O	91
CN1[C@H](CO)[C@@H](O)[C@H](O)[C@H]1CO	< 50
CN1C[C@H](O)[C@@H](O)[C@H](O)[C@H]1CO	4.4

biological target: not listed separately; test: Inhibition of Cellobiase in rat intestinal brush border membranes by D-glucose oxidase-peroxidase method; type: cell membranes, Membrane

SMILES	IC50 [µM]
CCCCN1[C@H](CO)[C@@H](O)[C@H](O)[C@H]1CO	< 50
CN1[C@H](CO)[C@@H](O)[C@H](O)[C@H]1CO	< 50
OC[C@H]1NC[C@@H](O)[C@@H]1O	< 50

biological target: T2, Sucrase-isomaltase, intestinal; test: Inhibition of Sucrase in rat intestinal brush border membranes by D-glucose oxidase-peroxidase method; type: cell membranes, Membrane

SMILES	IC50 [µM]
CCCCN1[C@H](CO)[C@@H](O)[C@H](O)[C@H]1CO	< 50
OC[C@H]1N[C@H](CO)[C@@H](O)[C@@H]1O	44
CN1[C@H](CO)[C@@H](O)[C@H](O)[C@H]1CO	620
CN1C[C@H](O)[C@@H](O)[C@H](O)[C@H]1CO	0.04

biological target: T3, Trehalase (Rattus norvegicus, UniProt O70282); test: Inhibition of Glycosidases (trehalase)in rat intestinal brush border membranes by D-glucose oxidase-peroxidase method; type: cell membranes, Membrane
T3 sequence (O70282 whole entry): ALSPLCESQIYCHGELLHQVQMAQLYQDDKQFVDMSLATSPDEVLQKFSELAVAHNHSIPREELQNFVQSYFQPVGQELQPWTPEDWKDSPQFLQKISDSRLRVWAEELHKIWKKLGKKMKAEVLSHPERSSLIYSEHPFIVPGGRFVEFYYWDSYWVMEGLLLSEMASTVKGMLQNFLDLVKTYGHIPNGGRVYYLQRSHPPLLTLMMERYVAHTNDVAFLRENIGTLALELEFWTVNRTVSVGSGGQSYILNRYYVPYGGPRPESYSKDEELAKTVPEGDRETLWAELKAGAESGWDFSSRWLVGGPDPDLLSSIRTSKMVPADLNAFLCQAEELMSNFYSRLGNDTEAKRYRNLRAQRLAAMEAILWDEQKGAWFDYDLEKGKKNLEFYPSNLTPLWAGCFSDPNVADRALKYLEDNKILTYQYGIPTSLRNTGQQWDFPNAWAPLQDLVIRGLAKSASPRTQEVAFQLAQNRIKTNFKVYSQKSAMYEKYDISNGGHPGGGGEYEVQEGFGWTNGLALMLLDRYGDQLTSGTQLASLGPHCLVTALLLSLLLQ

SMILES	IC50 [µM]
OC[C@H]1NC[C@@H](O)[C@@H]1O	25
CN1C[C@H](O)[C@@H](O)[C@H](O)[C@H]1CO	28

biological target: T4, Mannosidase 2, alpha B1 (Rattus norvegicus, UniProt Q6P762); test: Inhibition of lysosomal Alpha-mannosidase II in rat liver; type: tissue-based
T4 sequence (Q6P762 whole entry): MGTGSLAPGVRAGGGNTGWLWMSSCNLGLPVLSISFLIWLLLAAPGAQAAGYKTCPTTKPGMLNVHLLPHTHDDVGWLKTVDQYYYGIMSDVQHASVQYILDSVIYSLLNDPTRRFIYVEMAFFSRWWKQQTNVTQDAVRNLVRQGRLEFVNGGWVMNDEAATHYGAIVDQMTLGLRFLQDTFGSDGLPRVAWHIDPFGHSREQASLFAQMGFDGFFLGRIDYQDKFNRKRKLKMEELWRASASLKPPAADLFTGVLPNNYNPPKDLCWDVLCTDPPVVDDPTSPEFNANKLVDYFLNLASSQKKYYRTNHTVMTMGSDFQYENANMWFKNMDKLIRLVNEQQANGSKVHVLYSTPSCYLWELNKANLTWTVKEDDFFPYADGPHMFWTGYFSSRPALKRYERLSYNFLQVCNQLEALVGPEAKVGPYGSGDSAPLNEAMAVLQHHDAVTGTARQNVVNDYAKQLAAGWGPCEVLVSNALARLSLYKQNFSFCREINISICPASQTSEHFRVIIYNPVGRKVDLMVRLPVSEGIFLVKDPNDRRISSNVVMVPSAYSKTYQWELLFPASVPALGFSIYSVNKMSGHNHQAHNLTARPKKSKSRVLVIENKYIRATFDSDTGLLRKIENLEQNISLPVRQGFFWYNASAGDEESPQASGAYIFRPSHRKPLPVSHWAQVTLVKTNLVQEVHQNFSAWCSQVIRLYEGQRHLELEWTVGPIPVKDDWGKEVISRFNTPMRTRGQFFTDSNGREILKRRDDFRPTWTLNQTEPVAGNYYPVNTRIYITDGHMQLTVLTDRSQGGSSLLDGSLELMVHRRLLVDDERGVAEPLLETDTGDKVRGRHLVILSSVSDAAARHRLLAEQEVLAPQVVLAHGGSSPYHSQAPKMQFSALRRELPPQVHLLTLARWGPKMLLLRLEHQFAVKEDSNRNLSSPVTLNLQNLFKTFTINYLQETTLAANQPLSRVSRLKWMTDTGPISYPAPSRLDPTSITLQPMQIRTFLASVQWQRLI

SMILES	IC50 [µM]
CCCCN1[C@H](CO)[C@@H](O)[C@H](O)[C@H]1CO	< 50
OC[C@H]1N[C@H](CO)[C@@H](O)[C@@H]1O	< 50
CN1[C@H](CO)[C@@H](O)[C@H](O)[C@H]1CO	< 50
CN1C[C@H](O)[C@@H](O)[C@H](O)[C@H]1CO	1000

biological target: T1, Alpha-mannosidase 2; test: Inhibition of golgi Alpha-mannosidase II in rat liver; type: tissue-based

SMILES	IC50 [µM]
CCCCN1[C@H](CO)[C@@H](O)[C@H](O)[C@H]1CO	< 50
CN1[C@H](CO)[C@@H](O)[C@H](O)[C@H]1CO	< 50
OC[C@H]1NC[C@@H](O)[C@@H]1O	46
CN1C[C@H](O)[C@@H](O)[C@H](O)[C@H]1CO	< 50

biological target: Lactase/phlorizin hydrolase (Rattus norvegicus, UniProt Q02401); test: Inhibition of Glycosidases (lactase)in rat intestinal brush border membranes by D-glucose oxidase-peroxidase method; type: cell membranes, Membrane
Sequence (Q02401 868-1928 limits assumed): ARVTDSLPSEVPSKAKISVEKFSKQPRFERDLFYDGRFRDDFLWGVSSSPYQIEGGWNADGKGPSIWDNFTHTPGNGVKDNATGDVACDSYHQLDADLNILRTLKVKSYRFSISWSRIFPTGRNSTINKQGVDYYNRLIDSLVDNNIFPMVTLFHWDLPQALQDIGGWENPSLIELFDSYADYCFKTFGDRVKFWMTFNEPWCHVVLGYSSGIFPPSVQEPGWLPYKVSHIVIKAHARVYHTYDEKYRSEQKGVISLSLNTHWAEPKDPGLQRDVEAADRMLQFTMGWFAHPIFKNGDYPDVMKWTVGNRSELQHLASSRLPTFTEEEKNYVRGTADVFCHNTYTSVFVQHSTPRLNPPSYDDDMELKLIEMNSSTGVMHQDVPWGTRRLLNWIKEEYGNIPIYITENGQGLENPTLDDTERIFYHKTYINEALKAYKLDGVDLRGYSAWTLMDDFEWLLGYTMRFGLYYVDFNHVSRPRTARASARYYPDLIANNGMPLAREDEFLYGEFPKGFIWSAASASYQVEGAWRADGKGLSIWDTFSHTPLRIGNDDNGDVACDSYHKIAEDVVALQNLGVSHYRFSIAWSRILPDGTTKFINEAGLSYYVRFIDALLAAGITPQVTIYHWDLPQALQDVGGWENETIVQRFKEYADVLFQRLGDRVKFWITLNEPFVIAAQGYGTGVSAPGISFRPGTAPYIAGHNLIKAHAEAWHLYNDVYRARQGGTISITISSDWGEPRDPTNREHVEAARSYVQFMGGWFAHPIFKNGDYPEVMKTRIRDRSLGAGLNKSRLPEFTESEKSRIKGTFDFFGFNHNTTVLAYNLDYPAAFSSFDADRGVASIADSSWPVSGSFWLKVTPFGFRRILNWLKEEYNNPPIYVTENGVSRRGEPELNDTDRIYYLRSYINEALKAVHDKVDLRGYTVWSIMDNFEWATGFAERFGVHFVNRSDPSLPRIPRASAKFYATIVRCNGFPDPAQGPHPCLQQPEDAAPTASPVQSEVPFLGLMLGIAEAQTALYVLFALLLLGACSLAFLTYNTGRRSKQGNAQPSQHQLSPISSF

SMILES	IC50 [µM]
CCCCN1[C@H](CO)[C@@H](O)[C@H](O)[C@H]1CO	< 50
CN1[C@H](CO)[C@@H](O)[C@H](O)[C@H]1CO	< 50
OC[C@H]1NC[C@@H](O)[C@@H]1O	260
CN1C[C@H](O)[C@@H](O)[C@H](O)[C@H]1CO	4.4

biological target: T5, Alpha-mannosidase 2C1 (Rattus norvegicus, UniProt P21139); test: Inhibition of soluble Alpha-mannosidase II in rat liver; type: tissue-based
T5 sequence (P21139 whole entry): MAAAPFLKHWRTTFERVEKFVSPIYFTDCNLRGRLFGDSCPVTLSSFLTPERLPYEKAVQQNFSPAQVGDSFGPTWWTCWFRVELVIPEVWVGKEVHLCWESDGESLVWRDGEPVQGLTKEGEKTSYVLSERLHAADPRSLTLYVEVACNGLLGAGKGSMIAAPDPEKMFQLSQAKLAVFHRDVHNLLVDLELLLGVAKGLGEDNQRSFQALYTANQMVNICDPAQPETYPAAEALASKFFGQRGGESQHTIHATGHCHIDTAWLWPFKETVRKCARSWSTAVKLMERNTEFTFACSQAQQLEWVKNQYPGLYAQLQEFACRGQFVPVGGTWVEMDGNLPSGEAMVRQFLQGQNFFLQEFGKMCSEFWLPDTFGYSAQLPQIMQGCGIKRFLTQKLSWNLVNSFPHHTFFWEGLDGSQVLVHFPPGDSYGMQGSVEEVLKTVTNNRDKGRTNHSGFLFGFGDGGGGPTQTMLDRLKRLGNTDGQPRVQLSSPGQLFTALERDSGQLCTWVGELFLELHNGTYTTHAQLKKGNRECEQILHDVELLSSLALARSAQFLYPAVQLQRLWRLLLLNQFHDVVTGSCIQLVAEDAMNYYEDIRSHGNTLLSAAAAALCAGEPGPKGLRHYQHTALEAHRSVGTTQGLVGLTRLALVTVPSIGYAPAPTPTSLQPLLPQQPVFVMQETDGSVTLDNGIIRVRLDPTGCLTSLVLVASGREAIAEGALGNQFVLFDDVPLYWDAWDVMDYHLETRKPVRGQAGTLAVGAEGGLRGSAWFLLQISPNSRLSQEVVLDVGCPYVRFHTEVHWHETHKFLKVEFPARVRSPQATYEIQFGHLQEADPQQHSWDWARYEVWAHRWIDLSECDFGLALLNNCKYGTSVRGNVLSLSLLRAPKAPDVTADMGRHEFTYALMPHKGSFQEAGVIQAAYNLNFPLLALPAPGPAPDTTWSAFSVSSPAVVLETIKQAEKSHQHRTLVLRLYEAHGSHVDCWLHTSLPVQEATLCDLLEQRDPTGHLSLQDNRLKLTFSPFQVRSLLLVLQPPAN

SMILES	IC50 [µM]
CCCCN1[C@H](CO)[C@@H](O)[C@H](O)[C@H]1CO	850
OC[C@H]1N[C@H](CO)[C@@H](O)[C@@H]1O	260
CN1[C@H](CO)[C@@H](O)[C@H](O)[C@H]1CO	190
CN1C[C@H](O)[C@@H](O)[C@H](O)[C@H]1CO	500

system: MT4; test: Concentration giving 50% inhibition of HIV-1 induced cytopathogenicity in MT-4 cells; type: functional, cell-based, Homo sapiens

SMILES	EC50 [µg/mL]
CCCCN1[C@H](CO)[C@@H](O)[C@H](O)[C@H]1CO	> 100
OC[C@H]1N[C@H](CO)[C@@H](O)[C@@H]1O	> 100
CN1[C@H](CO)[C@@H](O)[C@H](O)[C@H]1CO	> 100
OC[C@H]1NC[C@@H](O)[C@@H]1O	> 100
CN1C[C@H](O)[C@@H](O)[C@H](O)[C@H]1CO	69 (≈ 389 µM)

biological target: not listed separately; test: Inhibition of lysosomal Alpha-Glucosidase II in rat liver

SMILES	IC50 [µM]
CCCCN1[C@H](CO)[C@@H](O)[C@H](O)[C@H]1CO	< 50
CN1[C@H](CO)[C@@H](O)[C@H](O)[C@H]1CO	470
OC[C@H]1NC[C@@H](O)[C@@H]1O	130
CN1C[C@H](O)[C@@H](O)[C@H](O)[C@H]1CO	1.5

biological target: not listed separately; test: Inhibition of endoplasmic reticulum Alpha-Glucosidase II in rat liver; type: tissue-based

SMILES	IC50 [µM]
CCCCN1[C@H](CO)[C@@H](O)[C@H](O)[C@H]1CO	< 50
OC[C@H]1N[C@H](CO)[C@@H](O)[C@@H]1O	< 50
CN1[C@H](CO)[C@@H](O)[C@H](O)[C@H]1CO	< 50
OC[C@H]1NC[C@@H](O)[C@@H]1O	20
CN1C[C@H](O)[C@@H](O)[C@H](O)[C@H]1CO	20
